Reference: patent US20070037862A1, “Thiazolidinones, their production and use as pharmaceutical agents” (priority 2003, published 2007)
Where two headings read alike, the source gives them in different places.

How the values were obtained:
[1] = target: T1, Recombinant human Plk-1 (6×His) (Homo sapiens, UniProt P53350); experiment: PLK enzyme assay; type: biochemical
T1 construct: 6xHis; made in house; host or cells: baculovirus-infected Hi5 insect cells
Experimental: Recombinant human Plk-1 (6×His) was purified from baculovirus-infected insect cells (Hi5).
10 ng of (produced in a recombinant manner and purified) PLK enzyme is incubated for 90 minutes at room temperature with biotinylated casein and 33P-γ-ATP as a substrate in a volume of 15 μl in 384-well Greiner small-volume microtiter plates (final concentrations in the buffer: 660 ng/ml of PLK; 0.7 μmol of casein, 0.5 μmol of ATP incl. 400 nCi/ml of 33P-γ-ATP; 10 mmol of MgCl2, 1 mmol of MnCl2; 0.01% NP40; 1 mmol of DTT, protease inhibitors; 0.1 mmol of Na2VO3 in 50 mmol of HEPES, pH 7.5). To complete the reaction, 5 μl of stop solution (500 μmol of ATP; 500 mmol of EDTA; 1% Triton X100; 100 mg/ml of streptavidin-coated SPA beads in PBS) is added. After the microtiter plate is sealed by film, the beads are sedimented by centrifuging (10 minutes, 1500 rpm). The incorporation of 33P-γ-ATP in casein is intended as a measurement of enzyme activity by β-counting.
Test substances are used in various concentrations (0 μmol, as well as in the range of 0.01-30 ∥mol). The final concentration of the solvent dimethyl sulfoxide is 1.5% in all batches.

[2] = test system: human MaTu breast tumor cells; experiment: Proliferation assay (crystal violet); type: cell-based; conditions: 96 h, 4 days, read-out: Inhibition of Tumor Cell Proliferation (MaTu) IC50
Experimental: Cultivated human MaTu breast tumor cells were flattened out at a density of 5000 cells/measuring point in a 96-well multititer plate in 200 μl of the corresponding growth medium. After 24 hours, the cells of one plate (zero-point plate) were colored with crystal violet (see below), while the medium of the other plates was replaced by fresh culture medium (200 μl), to which the test substances were added in various concentrations (0 μm, as well as in the range of 0.01-30 μm; the final concentration of the solvent dimethyl sulfoxide was 0.5%). The cells were incubated for 4 days in the presence of test substances. The cell proliferation was determined by coloring the cells with crystal violet: the cells were fixed by adding 20 μl/measuring point of an 11% glutaric aldehyde solution for 15 minutes at room temperature. After three washing cycles of the fixed cells with water, the plates were dried at room temperature. The cells were colored by adding 100 μl/measuring point of a 0.1% crystal violet solution (pH was set at 3 by adding acetic acid). After three washing cycles of the colored cells with water, the plates were dried at room temperature. The dye was dissolved by adding 100 μl/measuring point of a 10% acetic acid solution. The extinction was determined by photometry at a wavelength of 595 nm. The change of cell growth, in percent, was calculated by standardization of the measured values to the extinction values of the zero-point plate (=0%) and the extinction of the untreated (0 μm) cells (=100%).

[3] = Table 2, Amides, read-out: Inhibition of Plk-1 IC50

T1 sequence (P53350 whole entry): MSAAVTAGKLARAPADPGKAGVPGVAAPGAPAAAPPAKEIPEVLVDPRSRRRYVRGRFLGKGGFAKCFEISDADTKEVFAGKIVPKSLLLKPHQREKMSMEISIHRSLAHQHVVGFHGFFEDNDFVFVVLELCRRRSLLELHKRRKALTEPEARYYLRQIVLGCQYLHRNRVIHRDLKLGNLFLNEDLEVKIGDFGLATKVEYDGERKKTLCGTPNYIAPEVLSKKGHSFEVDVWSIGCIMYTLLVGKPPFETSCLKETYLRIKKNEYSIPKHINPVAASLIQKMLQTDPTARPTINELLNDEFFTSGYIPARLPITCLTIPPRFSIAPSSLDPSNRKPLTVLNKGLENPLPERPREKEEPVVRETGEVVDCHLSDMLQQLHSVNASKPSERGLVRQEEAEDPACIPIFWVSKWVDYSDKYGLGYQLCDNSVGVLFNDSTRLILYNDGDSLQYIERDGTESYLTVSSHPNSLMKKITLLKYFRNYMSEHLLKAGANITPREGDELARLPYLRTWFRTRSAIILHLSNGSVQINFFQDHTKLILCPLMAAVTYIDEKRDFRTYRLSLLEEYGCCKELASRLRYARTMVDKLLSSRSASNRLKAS

Compound CCOC(=O)C(C#N)=c1sc(=CNc2ccccc2F)c(=O)n1CC (mixture of isomers) [Example 36] has an IC50 ([1]; Table 1, read-out: PLK IC50) of 160 nM.

Compound C=CCOC(=O)C(C#N)=c1sc(=CNc2ccc(NC(=O)NCCN3CCCC3)cc2)c(=O)n1CC (mixture of isomers) [Example 47] has an IC50 ([1]; Table 3, Esters, read-out: Inhibition of Plk-1 IC50) of 23 nM and an IC50 ([2]; Table 3, Esters) of 1100 nM.

CCOC(=O)C(C#N)=c1sc(=CNc2ccc(OC)c(NC(=S)N3CCOCC3)c2)c(=O)n1CC (mixture of isomers) [Example 56] showed an IC50 ([1]; Table 1, read-out: PLK IC50) of 810 nM.

CCOC(=O)C(C#N)=c1sc(=CNc2ccc(C(C)=O)cc2)c(=O)n1CC (mixture of isomers) [Example 132] gave an IC50 ([2]; Table 3, Esters) of 3100 nM.

C=CCOC(=O)C(C#N)=c1sc(=CNc2ccc(C(C)=O)cc2)c(=O)n1CC (mixture of isomers) [Example 133] gave an IC50 ([2]; Table 3, Esters) of 1400 nM.

CCOC(=O)C(C#N)=c1sc(=CNc2ccc(NC(=O)COC)cc2)c(=O)n1CC [Example 19] gave an IC50 ([1]; Table 1, read-out: PLK IC50) of 500 nM.

CCOC(=O)C(C#N)=c1sc(=CNc2ccc(NC(=O)NCCN3CCCC3)cc2)c(=O)n1CC [Example 74] was tested, and the IC50 ([2]; Table 3, Esters) was 3300 nM.

For CCNC(=O)/C(C#N)=c1\sc(=CNc2cccc(C(=O)NCCCN3CCCC3)c2)c(=O)n1CC [Example 169], the IC50 ([2]; Table 2, Amides) was 3550 nM.

CCn1c(=O)c(=CNc2cccc(NC(=O)C(C)(C)C)c2)s/c1=C(/C#N)C(=O)NC1(CO)CCCC1 [Example 192] gave an IC50 ([2]; Table 2, Amides) of 9700 nM.

In the case of CCn1c(=O)c(=CNc2ccccc2)s/c1=C(/C#N)C(=O)N1CCCC1 [Example 210], the IC50 ([2]; Table 2, Amides) is reported as 4500 nM.

CCn1c(=O)c(=CNc2ccccc2)s/c1=C(/C#N)C(=O)NCc1ccco1 [Example 223] gave an IC50 ([1]; Table 1, read-out: PLK IC50) of 3100 nM.

For CCCCN(C)C(=O)/C(C#N)=c1\sc(=CNc2ccccc2)c(=O)n1CC [Example 234], the IC50 ([1]; Table 1, read-out: PLK IC50) was 950 nM.

Work on C#CCNC(=O)/C(C#N)=c1\sc(=CNc2ccc(OCCN(C)C)cc2)c(=O)n1CC [Example 307] yielded an IC50 [1, 3] of 71 nM.

CCn1c(=O)c(=CNc2ccc(OCCN(C)C)cc2)s/c1=C(/C#N)C(=O)NCC(F)F [Example 310] was tested, and the IC50 [1, 3] was 74 nM.

CCN(CC)CCNC(=O)c1c[nH]c2ccc(NC=c3s/c(=C(/C#N)C(=O)NCC(F)(F)F)n(CC)c3=O)cc12 [Example 330] was tested, and the IC50 ([2]; Table 2, Amides) was 1200 nM.

In the case of CCn1c(=O)c(=CNc2ccc(CCN3CCCC3)cc2)s/c1=C(/C#N)C(=O)NCC(F)(F)F [Example 527], the IC50 ([2]; Table 2, Amides) is reported as 2800 nM.
